Results as given in patent US9770451B2, “Composition including ATM inhibitor for reducing cellular senescence and use of the composition” (Samsung Electronics Co., Ltd., priority 2014, dated 2017).

System: senescent myoblasts (passage 11)
Experiment: ROS measurement (MitoSOX Red)
Assay type: cell-based, human
Settings: CP-466722 0.1 μM
Experimental: (§1) ROS was measured according to the protocol of the manufacturer using a 0.2 μM MitoSOX™ Red reagent (Invitrogen, M36008). In detail, 2 μL of the reagent that was stored in a 1,000-fold concentration was added to a 2 ml medium sufficiently enough to cover the cultured cells that were attached to a coverslip. While being protected from light, the cells were further incubated at a temperature of 37° C. for 30 minutes. The cultured cells were irradiated with a wavelength of 520 nm by using a FACSCaliber (Beckton Dickinson), and then, measured with radiation emitted from a wavelength of 580 nm. The results were analyzed using Cell Quest 3.2 software (Beckton Dickinson).
as §1, with “by using an FACSCaliber (Beckton” for “by using a FACSCaliber (Beckton”

**Q.** `COc1cc2ncnc(-n3nc(-c4ccccn4)nc3N)c2cc1OC` [CP-466722, 2-(6,7-dimethoxyquinazolin-4-yl)-5-(pyridin-2-yl)-2H-1,2,4-triazol-3-amine] was tested. Which “amount of ROS (superoxide) vs control” value did it give?
**A.** The value was “significantly decreased”.
